# Source: publication PMC10860144, “Exploring the Dispersion and Electrostatic Components in Arene–Arene Interactions between Ligands and G4 DNA to Develop G4-Ligands” (Journal of Medicinal Chemistry, 2024)
# Test system: template not forming a G4 structure (PEPu24T mut)
# Assay: Taq polymerase stop (primer extension) assay, non-G4 template
# Type: biochemical
# Text: To challenge all the synthesized compounds (2–11 and 25–29) in a more intricate context, we conducted a Taq polymerase stop assay to evaluate their capacity to impede DNA synthesis through G4 stabilization. In this assay, we compared the progress of the Taq DNA polymerase along two distinct DNA templates: one with a G4 structure (Figure 5) and another serving as a non-G4 control (Figure S21). If an external species (e.g., G4 ligand) binds and stabilizes the G4 structure, the polymerase will be partially halted. The extent of this DNA polymerase stalling is dependent on the ability of the compound to stabilize the G4 on the DNA template. The increased G4 stabilization can be detected as a reduction in the amount of newly synthesized DNA that has reached the end of the DNA template (full-length/end-product). Analysis of these shorter terminated DNA products will give information about the precise location of the DNA polymerase stalling with a single nucleotide resolution. If the ligand imposes little to no stabilization or binding, the G4 is readily resolved by the DNA polymerase, and no difference in the amount of DNA end-product can therefore be expected upon the addition of the compound. […]
# The images were quantified using ImageJ 1.53e software and the percentage of full-length product compared to a sample without compound was calculated. […]
compound,measurement,value
"Cc1cc(C)c2nc(Nc3nc(C)cc(NCCCN(C)C)n3)nc(C)c2c1 [Compound 5, N4-(3-(Dimethylamino)propyl)-6-methyl-N2-(4,6,8-trimethylquinazolin-2-yl)pyrimidine-2,4-diamine]",concentration at which an effect on the Taq polymerase was observed in the absence of a G4 structure,> 4 µM
